Assay results: US20200331882A1, “COMPOUND FOR SIMULTANEOUSLY INHIBITING LSD1 AND HDAC TARGETS AND APPLICATION THEREOF” (PEKING UNIVERSITY SHENZHEN GRADUATE SCHOOL, priority 2018, published 2020)

Assays:
[1] = system: mouse breast cancer cell 4T1; assay: MTT tumor cell proliferation; assay type: cell-based; settings: Mus musculus, 72 h
Description: (§1) MTT colorimetric method was used to detect the inhibitory activity of a series of compounds (i.e. ZZY-001 to ZZY-016, a total of 16 kinds) of the embodiment of the present invention on the proliferation of tumor cells in vitro. The full name of MTT is 3-(4,5-dimethyl-2-thiazolyl)-2,5-diphenyl-2-H-tetrazolium romide, which is a yellow dye also known as thiazolyl blue. […] DMSO can dissolve Formazan deposited in cells and the absorbance value can be measured with a enzyme marker at a wavelength of 490 nm. In a certain range of cell number, the production of Formazan is proportional to the number of cells, so the number of living cells can be inferred according to the measured OD value.
(§2) The cell suspension was inoculated on a 96-well plate at 100 μl/well and cultured in a constant temperature CO2 incubator for 24 h. Then the tested drugs were added, 100 μl/well, and cultured for 72 h. MTT was added to a 96-well plate, 20 μl/well, and reacted for 4 h in the incubator. Absorb the supernatant, add DMSO, 150 μl/well and shake for 10 min on the plate shaker. The optical density (OD value) of each well was measured by enzyme marker at the wavelength of 490 nm.

[2] = system: mouse colon cancer cell CT26.WT; assay: MTT tumor cell proliferation; assay type: cell-based; settings: Mus musculus, 72 h
Description: as §1, §2

[3] = system: human breast cancer cell line BT-474; assay: MTT tumor cell proliferation; assay type: cell-based; settings: Homo sapiens, 72 h
Description: as §1, §2

[4] = system: human colon adenocarcinoma cell HCT116; assay: MTT tumor cell proliferation; assay type: cell-based; settings: Homo sapiens, HCT-116, 72 h
Description: as §1, §2

[5] = system: human breast cancer cell line MDA-MB-231; assay: MTT tumor cell proliferation; assay type: cell-based; settings: Homo sapiens, 72 h
Description: as §1
In the experiments of this embodiment, the selected cell lines are human breast cancer cell line MDA-MB-231 and BT-474, human colon adenocarcinoma cell HCT116, mouse colon cancer cell CT26.WT, mouse breast cancer cell 4T1. During the test, the cells in logarithmic phase and in good condition were digested with 0.25% trypsin digestion solution to make the adherent cells fall off, and the cell suspension (suspension cells without trypsin digestion) was made by counting 2-4×10^4 cells/ml. The cell suspension was inoculated on a 96-well plate at 100 μl/well and cultured in a constant temperature CO2 incubator for 24 h. Then the tested drugs were added, 100 μl/well, and cultured for 72 h. MTT was added to a 96-well plate, 20 μl/well, and reacted for 4 h in the incubator. Absorb the supernatant, add DMSO, 150 μl/well and shake for 10 min on the plate shaker. The optical density (OD value) of each well was measured by enzyme marker at the wavelength of 490 nm. […]

[6] = molecular target: T1, recombinant human LSD1 protein (Homo sapiens, UniProt O60341); assay: In vitro LSD1 inhibitory activity, LSD1-HRP coupling reaction (Amplex Red); assay type: biochemical; settings: LSD1 enzyme activity in vitro; 30 min preincubation; H3K4Me2 peptide
T1 construct: made in house; host or cells: E. coli
Description: LSD1 activity was detected by using LSD1-HRP coupling reaction. […] During the reduction of H2O2 to H2O, Amplex Red acts as an electron donor and oxidizes to Resorufin for detection of fluorescence. […] Ampliflu™ Red, peroxidase, from horseradish required for the experiment was purchased from SIGMA; H3K4Me2 substrate peptide was purchased from GL Biochemical (Shanghai) Co., Ltd.

Cc1ccc(C(=O)Nc2cc(N3CCNCC3)ccc2-c2ccc(/C=C/C(=O)NO)cc2C)cc1.Cl [ZZY-003]
IC50 [1]: 2.38 µM | IC50 [2]: 8.76 µM | IC50 [3]: 1.86 µM | IC50 [4]: 0.265 µM | IC50 [5]: 0.836 µM | IC50 [6]: 0.44 µM
